What was measured:
Assay type in all cases: functional
HL-60(TB) = assay: Growth inhibition of human HL-60(TB) cells after 48 hrs by SRB assay; details: HL-60, 48 h
MOLT-4 = assay: Growth inhibition of human MOLT4 cells after 48 hrs by SRB assay; details: MOLT-4, 48 h
HCT-116 = assay: Growth inhibition of human HCT116 cells after 48 hrs by SRB assay; details: HCT-116, 48 h
SW-620 = assay: Growth inhibition of human SW620 cells after 48 hrs by SRB assay; details: SW-620, 48 h
SF-295 = assay: Growth inhibition of human SF295 cells after 48 hrs by SRB assay; details: SF-295, 48 h
SNB-19 = assay: Growth inhibition of human SNB19 cells after 48 hrs by SRB assay; details: SNB-19, 48 h
SK-MEL-2 = assay: Growth inhibition of human SK-MEL-2 cells after 48 hrs by SRB assay; details: SK-MEL-2, 48 h
RXF 393 = assay: Growth inhibition of human RXF393 cells after 48 hrs by SRB assay; details: RXF 393, 48 h
SN12C = assay: Growth inhibition of human SN12C cells after 48 hrs by SRB assay
UO-31 = assay: Growth inhibition of human UO31 cells after 48 hrs by SRB assay; details: UO-31, 48 h
BT-549 = assay: Growth inhibition of human BT549 cells after 48 hrs by SRB assay; details: BT-549, 48 h
T47D = assay: Growth inhibition of human T47D cells after 48 hrs by SRB assay
SF-539 = assay: Growth inhibition of human SF539 cells after 48 hrs by SRB assay; details: SF-539, 48 h
K562 = assay: Growth inhibition of human K562 cells assessed as cell growth at 10^-5 M after 48 hrs by SRB assay; details: K562, 48 h, read-out: Activity
[1] = read-out: LC50 (the source's name)

O=C(CO[N+](=O)[O-])Nc1ccc(C(=O)/C=C/c2ccc(Cl)cc2)cc1
GI50 (HL-60(TB)): 3.59 µM | TGI (HL-60(TB)): > 100 µM | CC50 (HL-60(TB); [1]): > 100 µM | GI50 (MOLT-4): 4.68 µM | TGI (MOLT-4): 69.4 µM | CC50 (MOLT-4; [1]): > 100 µM | GI50 (HCT-116): 0.3 µM | TGI (HCT-116): 1.09 µM | CC50 (HCT-116; [1]): 3.55 µM | GI50 (SW-620): 1.44 µM | TGI (SW-620): 2.88 µM | CC50 (SW-620; [1]): 5.77 µM | GI50 (SF-295): 5.82 µM | TGI (SF-295): 29.2 µM | CC50 (SF-295; [1]): > 100 µM | GI50 (SNB-19): 4.11 µM | TGI (SNB-19): 18.4 µM | CC50 (SNB-19; [1]): 64 µM | GI50 (SK-MEL-2): 9.69 µM | TGI (SK-MEL-2): 23.3 µM | CC50 (SK-MEL-2; [1]): 54.7 µM | GI50 (RXF 393): 4.82 µM | TGI (RXF 393): 17.8 µM | CC50 (RXF 393; [1]): 48.5 µM | GI50 (SN12C): 3.15 µM | TGI (SN12C): 14.1 µM | CC50 (SN12C; [1]): 49.6 µM | GI50 (UO-31): 1.52 µM | TGI (UO-31): 12.1 µM | CC50 (UO-31; [1]): 38.5 µM | GI50 (BT-549): 1.86 µM | TGI (BT-549): 5 µM | CC50 (BT-549; [1]): > 100 µM | GI50 (T47D): 3.26 µM | TGI (T47D): 14.9 µM | CC50 (T47D; [1]): 58.3 µM | GI50 (SF-539): 2.52 µM | TGI (SF-539): 8.82 µM | CC50 (SF-539; [1]): 42.9 µM

O=C(CO[N+](=O)[O-])Nc1ccc(C(=O)/C=C/c2ccc3c(c2)OCO3)cc1
growth at 10 µM (K562): 59.1%
